Here are results for one compound from patent US20150231236A1, “METHODS FOR TREATING PATIENTS WITH HYPERCHOLESTEROLEMIA THAT IS NOT ADEQUATELY CONTROLLED BY MODERATE-DOSE STATIN THERAPY” (Regeneron Pharmaceuticals, Inc., priority 2014, published 2015).

This experiment has as its system patients with hypercholesterolemia at high CV risk not adequately controlled with atorvastatin (20 mg or 40 mg). As to the kind of experiment: Example 2: randomized, double-blind trial, lipid efficacy of mAb316P add-on to atorvastatin vs EZE add-on, atorvastatin dose doubling or switch to rosuvastatin. The class given is in vivo, human. The protocol:
The present study was a randomized, double-blind, active-comparator, parallel-group study in patients at high CV risk with non-FH or heFH who are not adequately controlled with atorvastatin (20 mg or 40 mg) with or without other lipid-modifying therapy (LMT) (excluding EZE). The study design is illustrated in FIG. 1. Patients who entered the study were taking either atorvastatin 20 mg or atorvastatin 40 mg. The former patients were randomized to 1 of 3 treatment arms (arms 1 to 3); the latter patients were randomized to 1 of 4 treatment arms (arms 4 to 7). The treatment arms are as follows:
(1) mAb316P+atorvastatin 20 mg+placebo-EZE; (2) Placebo-mAb316P+atorvastatin 40 mg+placebo-EZE; and (3) Placebo-mAb316P+atorvastatin 20 mg+EZE 10 mg.
(4) mAb316P+atorvastatin 40 mg+placebo-EZE; (5) Placebo-mAb316P+atorvastatin 80 mg+placebo-EZE; (6). Placebo-mAb316P+rosuvastatin 40 mg+placebo-EZE; and (7) Placebo-mAb316P+atorvastatin 40 mg+EZE 10 mg.
(B) a double-blind treatment period of 24 weeks. Each patient received a SC injection Q2W (mAb316P or placebo-mAb316P) and was administered (or instructed to take) 2 oral blinded medications daily (a statin [atorvastatin or rosuvastatin] and EZE or placebo-EZE). The first injection of mAb316P or placebo-mAb316P was administered at the clinical site on day 1, after study assessments were completed, and as soon as possible after the patient was randomized into the study. The patient/caregiver administered subsequent injections outside of the clinic according to the dosing schedule. On days where the clinic study visit coincided with dosing, the dose of study drugs (injectable and oral) were administered after all study assessments had been performed and all laboratory samples collected. The last dose of mAb316P or placebo-mAb316P was administered at week 22. The last dose of daily oral study drugs was administered at week 24. At week 12, based on their baseline CV risk, certain patients randomized to mAb316P in a blinded manner, had their dose increased as follows:
Each patient received a subcutaneous (SC) injection once every two weeks (Q2W) (mAb316P or placebo-mAb316P) and took 2 oral blinded medications daily (a statin [atorvastatin or rosuvastatin] and EZE or placebo-EZE).
The injectable study treatment was a single SC injection of 1 mL for a 75 mg or 150 mg dose of mAb316P or placebo-mAb316P provided in an auto-injector, administered in the abdomen, thigh, or outer area of the upper arm. The first injection of study drug was administered at the clinical site, as soon as possible after the patient was randomized into the study. The patient was monitored at the clinical site for at least 30 minutes following the first injection. The patient/caregiver administered subsequent injections outside of the clinic, according to the dosing schedule. On days where the clinic study visit coincided with dosing, the dose of study drug was administered after all study assessments have been performed and all laboratory samples collected.
The dose of mAb316P was increased, in a blinded manner, from 75 mg to 150 mg SC Q2W, starting at week 12, based on baseline CV risk in the following circumstances:
The primary efficacy endpoint was the percent change in calculated LDL-C from baseline to week 24, which is defined as: 100× (calculated LDL-C value at week 24−calculated LDL-C value at baseline)/calculated LDL-C value at baseline. The baseline calculated LDL-C value was the last LDL-C level obtained before the first double-blind study drug injection. The calculated LDL-C at week 24 will be the LDL-C level obtained within the week 24 analysis window and during the main efficacy period. The main efficacy period was defined as the time from the first double-blind study drug injection up to 21 days after the last double-blind study drug injection or up to the upper limit of the week 24 analysis window, whichever comes first.
Total-C, HDL-C, TG, ApoB, ApoA-1, and Lp (a) were directly measured by a central laboratory. […]

`CC(C)c1nc(N(C)S(C)(=O)=O)nc(-c2ccc(F)cc2)c1/C=C/[C@@H](O)C[C@@H](O)CC(=O)O` [rosuvastatin, reference compound]: for the setting “ITT population, week 24, treatment arm as labelled”, the “LDL-C W24 % change from baseline, LS mean (SE)” value is listed as −21.4%. Besides, the “Calculated LDL-C LS mean (SE), % Change from Baseline” value is −22.4 (2.8) % (Week 4); −21.0 (3.2) % (Week 8); −23.3 (3.2) % (Week 12); −15.7 (3.5) % (Week 16); −21.4 (4.2) % (Week 24). Also, the “Calculated LDL-C LS mean (SE), Change from Baseline” value (Week 4) was −25.2 (3.0); the “Calculated LDL-C LS mean (SE), Change from Baseline” value (Week 8) is on record as −22.9 (3.3); the “Calculated LDL-C LS mean (SE), Change from Baseline” value (Week 12) was −26.3 (3.5); the “Calculated LDL-C LS mean (SE), Change from Baseline” value (Week 16) is recorded as −18.7 (3.8); the “Calculated LDL-C LS mean (SE), Change from Baseline” value (Week 24) is −23.1 (4.5). Also, the “Calculated LDL-C LS mean (SE), Value (mg/dL)” value is, setting by setting: (Week 4) 83.5 (3.0) mg/dL; (Week 8) 85.8 (3.3) mg/dL; (Week 12) 82.4 (3.5) mg/dL; (Week 16) 90.0 (3.8) mg/dL; (Week 24) 85.6 (4.5) mg/dL. Besides, where the note is “Week 24, calculated LDL-C, across atorvastatin 20 mg and 40 mg regimens”, the “patients achieving the more stringent LDL-C goal of <70 mg/dL” value was 42.2%. Moreover, under “atorvastatin 40 mg regimen, week 24, add-on mAb316P, add-on ezetimibe, doubling of atorvastatin dose or switch to rosuvastatin 40 mg”, the “reduced LDL-C levels by” value is listed as 21.4%. Moreover, where the note is “week 24, calculated LDL-C <70 mg/dL very high risk or <100 mg/dL high risk, combined estimate”, the “Proportion of Patients Reaching LDL-C goal (%)” value is recorded as 62.2%.
